Results taken from patent US20250087329A1, “PERSONALISED RECOMMENDED DAILY INTAKE FOR NUTRIENTS BASED ON INDIVIDUAL GENETIC RISK SCORES” (SOCIETE DES PRODUITS NESTLE S.A., priority 2021, published 2025).

What was measured:
[1] = Person; daily intake; cited from earlier work
[2] = Dose-response algorithm for vitamin B12 including polygenic risk score effects (Arivale cohort); set-up: species or system human
Method: A linear regression was performed for the selected SNPs against vitamin B12 in the Arivale cohort. The Arivale cohort consists of individuals over 18 years of age who between 2015 and 2019 self-enrolled in a now closed scientific wellness company. Briefly, majority of Arivale participants (˜80%) were residents of Washington or California when in the program (for further information on the Arivale cohort see Wilmanski et al. 2021). Methyl-malonic acid (MMA) was measured as a biomarker for blood B12 concentrations. MMA is inversely correlated with vitamin B12 blood levels. The distribution of the PRS was normally distributed and the average increase in MMA per risk allele was 3.4 units (Table 5) corresponding to a decrease of approximately […] vitamin B12 (cobalamin) per risk allele.
To estimate individual vitamin B12 intake needs, a genetic term that sums the effects of all risk alleles present in an individual was added to the dose-response model in the form: […]

Compound	UL (tolerable upper intake level) [1]	intake needed by highest risk score group relative to low risk group to reach the same blood levels ([2]; 14-18 risk alleles vs 0-4 risk alleles)	daily vitamin B12 intake needed for vitamin B12 sufficiency ([2]; sufficiency for 97% of the high risk group)
F [Fluoride]	10 mg	–	–
[Ca+2] [Calcium]	2500 mg	–	–
[Mn+2] [Manganese]	11 mg	–	–
O=C(O)c1cccnc1 [Niacin (B3), Niacin]	35 mg	–	–
C[N+](C)(C)CCO [Choline]	3500 mg	–	–
[Se] [Selenium]	0.4 mg	–	–
Cc1c(C)c2c(c(C)c1O)CC[C@@](C)(CCC[C@H](C)CCC[C@H](C)CCCC(C)C)O2 [α-tocopherol (Vitamin E), α-tocopherol]	1000 mg	–	–
Cl [Chloride]	3600 mg	–	–
[Mg+2] [Magnesium]	350 mg	–	–
[Na] [Sodium]	2300 mg	–	–
[P] [Phosphorus]	4000 mg	–	–
cobalamin [vitamin B12]	–	five times	higher than 1500 mcg/day
[Zn] [Zinc]	40 mg	–	–
